Tested on: Detoxification protein genes
Test: DNA chip mRNA expression in yeast, detoxification protein genes (Table 8)
Assay type: cell-based, Saccharomyces cerevisiae S288C
In short: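 S. cerevisiae S288C grown at 25° C in YPD were exposed in log phase for two hours to one toxic chemical at a growth-inhibiting, non-lethal concentration; untreated cells served as control. Poly(A) mRNA was reverse-transcribed with Cy3/Cy5-dUTP and hybridized to a whole-genome yeast DNA chip at 65° C for over 12 hours; values are fluorescence ratios versus untreated.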

CCCCC[C@H](O)CC(=O)CCc1ccc(O)c(OC)c1 [(13), gingerol]
The level of expressed mRNA in the presence of chemical substance/The level of expressed mRNA in the absence of chemical substance (yeast gene YBL064C): 4.1 | The level of expressed mRNA in the presence of chemical substance/The level of expressed mRNA in the absence of chemical substance (yeast gene YBR244W): 0.4 | The level of expressed mRNA in the presence of chemical substance/The level of expressed mRNA in the absence of chemical substance (yeast gene YBR293W): 3.0 | The level of expressed mRNA in the presence of chemical substance/The level of expressed mRNA in the absence of chemical substance (yeast gene YDL168W): 1.3 | The level of expressed mRNA in the presence of chemical substance/The level of expressed mRNA in the absence of chemical substance (yeast gene YDR256C): 1.1 | The level of expressed mRNA in the presence of chemical substance/The level of expressed mRNA in the absence of chemical substance (yeast gene YDR453C): 1.4 | The level of expressed mRNA in the presence of chemical substance/The level of expressed mRNA in the absence of chemical substance (yeast gene YDR538W): 0.7 | The level of expressed mRNA in the presence of chemical substance/The level of expressed mRNA in the absence of chemical substance (yeast gene YEL027W): 0.7 | The level of expressed mRNA in the presence of chemical substance/The level of expressed mRNA in the absence of chemical substance (yeast gene YER185W): 2.1 | The level of expressed mRNA in the presence of chemical substance/The level of expressed mRNA in the absence of chemical substance (yeast gene YFL050C): 1.2 | The level of expressed mRNA in the presence of chemical substance/The level of expressed mRNA in the absence of chemical substance (yeast gene YGR088W): 1.2 | The level of expressed mRNA in the presence of chemical substance/The level of expressed mRNA in the absence of chemical substance (yeast gene YGR138C): 0.6 | The level of expressed mRNA in the presence of chemical substance/The level of expressed mRNA in the absence of chemical substance (yeast gene YGR209C): 1.4 | The level of expressed mRNA in the presence of chemical substance/The level of expressed mRNA in the absence of chemical substance (yeast gene YHR008C): 1.2 | The level of expressed mRNA in the presence of chemical substance/The level of expressed mRNA in the absence of chemical substance (yeast gene YHR048W): 1.1 | The level of expressed mRNA in the presence of chemical substance/The level of expressed mRNA in the absence of chemical substance (yeast gene YIR002C): 1.2 | The level of expressed mRNA in the presence of chemical substance/The level of expressed mRNA in the absence of chemical substance (yeast gene YJL101C): 1.0 | The level of expressed mRNA in the presence of chemical substance/The level of expressed mRNA in the absence of chemical substance (yeast gene YKL064W): 1.6 | The level of expressed mRNA in the presence of chemical substance/The level of expressed mRNA in the absence of chemical substance (yeast gene YKR066C): 0.6 | The level of expressed mRNA in the presence of chemical substance/The level of expressed mRNA in the absence of chemical substance (yeast gene YKR106W): 1.4 | The level of expressed mRNA in the presence of chemical substance/The level of expressed mRNA in the absence of chemical substance (yeast gene YLL028W): 4.1 | The level of expressed mRNA in the presence of chemical substance/The level of expressed mRNA in the absence of chemical substance (yeast gene YLL057C): 1.4 | The level of expressed mRNA in the presence of chemical substance/The level of expressed mRNA in the absence of chemical substance (yeast gene YLR046C): 1.2 | The level of expressed mRNA in the presence of chemical substance/The level of expressed mRNA in the absence of chemical substance (yeast gene YML028W): 1.6 | The level of expressed mRNA in the presence of chemical substance/The level of expressed mRNA in the absence of chemical substance (yeast gene YMR015C): 0.4 | The level of expressed mRNA in the presence of chemical substance/The level of expressed mRNA in the absence of chemical substance (yeast gene YMR038C): 1.7 | The level of expressed mRNA in the presence of chemical substance/The level of expressed mRNA in the absence of chemical substance (yeast gene YNL239W): 3.6 | The level of expressed mRNA in the presence of chemical substance/The level of expressed mRNA in the absence of chemical substance (yeast gene YNL241C): 4.9 | The level of expressed mRNA in the presence of chemical substance/The level of expressed mRNA in the absence of chemical substance (yeast gene YNL259C): 1.1 | The level of expressed mRNA in the presence of chemical substance/The level of expressed mRNA in the absence of chemical substance (yeast gene YOL158C): 1.4 | The level of expressed mRNA in the presence of chemical substance/The level of expressed mRNA in the absence of chemical substance (yeast gene YOR251C): 1.0 | The level of expressed mRNA in the presence of chemical substance/The level of expressed mRNA in the absence of chemical substance (yeast gene YOR273C): 2.6 | The level of expressed mRNA in the presence of chemical substance/The level of expressed mRNA in the absence of chemical substance (yeast gene YPR200C): 0.6
